Measured values reported in US20060128724A1, “Pyrazole-substituted aminoheteroaryl compounds as protein kinase inhibitors” (AGOURON PHARMACEUTICALS, INC., priority 2004, published 2006).

Target: T1, c-MET (HGFR) (Homo sapiens, UniProt P08581)
T1 construct: purchased Upstate 14-526
Assay: HGFR Continuous-Coupled Spectrophotometric Assay
Format: biochemical
Conditions: Met-2 substrate peptide, 50 nM HGFR, 37° C.; read-out: Met Ki
Summary of the method: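 Tyrosine kinase activity of 50 nM HGFR on the activation-loop Met-2 peptide, followed as NADH consumption at 340 nm over 10 min at 37 °C in a pyruvate kinase/LDH coupled system, HEPES pH 7.5 buffer with MgCl2 and DTT.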

T1 sequence (P08581 974-1390 limits assumed): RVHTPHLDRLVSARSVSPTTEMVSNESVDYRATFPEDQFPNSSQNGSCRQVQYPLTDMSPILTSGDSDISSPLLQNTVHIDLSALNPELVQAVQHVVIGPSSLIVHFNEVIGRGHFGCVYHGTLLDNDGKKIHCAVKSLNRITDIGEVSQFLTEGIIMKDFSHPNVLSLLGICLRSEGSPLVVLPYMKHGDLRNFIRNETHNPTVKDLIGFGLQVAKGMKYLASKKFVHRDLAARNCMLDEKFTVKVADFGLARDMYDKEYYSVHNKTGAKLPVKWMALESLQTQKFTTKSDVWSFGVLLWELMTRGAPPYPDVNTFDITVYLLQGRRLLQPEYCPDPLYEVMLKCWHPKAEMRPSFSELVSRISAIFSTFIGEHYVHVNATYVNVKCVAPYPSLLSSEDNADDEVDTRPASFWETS

| SMILES | Ki [nM] |
| --- | --- |
| CC(Oc1cc(-c2cnn(C3CCN(C(=O)NCCO)CC3)c2)cnc1N)c1c(Cl)ccc(F)c1Cl (stereo not shown) [Example 122, 4-(4-[6-Amino-5-[1-(2,6-dichloro-3-fluoro-phenyl)-ethoxy]-pyridin-3-yl}-pyrazol-1-yl)-piperidine-1-carboxylic acid (2-hydroxy-ethyl)-amide] | 150 |
| CC(Oc1cc(-c2cnn(C3CCN(C(=O)CN4CCOCC4)CC3)c2)cnc1N)c1c(Cl)ccc(F)c1Cl (stereo not shown) [Example 123, 1-[4-(4-{6-Amino-5-[1-(2,6-dichloro-3-fluoro-phenyl)-ethoxy]-pyridin-3-yl}-pyrazol-1-yl)-piperidin-1-yl]-2-morpholin-4-yl-ethanone] | 13 |
| COCC(=O)N1CCC(n2cc(-c3cnc(N)c(OC(C)c4c(Cl)ccc(F)c4Cl)c3)cn2)CC1 (stereo not shown) [Example 124, 1-[4-(4-{6-Amino-5-[1-(2,6-dichloro-3-fluoro-phenyl)-ethoxy]-pyridin-3-yl}-pyrazol-1-yl)-piperidin-1-yl]-2-methoxy-ethanone] | 14 |
| CC(Oc1cc(-c2cnn(C3CCN(C(=O)CN4CCCC4)CC3)c2)cnc1N)c1c(Cl)ccc(F)c1Cl (stereo not shown) [Example 125, 1-[4-(4-{6-Amino-5-[1-(2,6-dichloro-3-fluoro-phenyl)-ethoxy]-pyridin-3-yl}-pyrazoI-1-yl)-piperidin-1-yl]-2-pyrrolidin-1-yl-ethanone] | 14 |
| CCN(CC)CC(=O)N1CCC(n2cc(-c3cnc(N)c(OC(C)c4c(Cl)ccc(F)c4Cl)c3)cn2)CC1 (stereo not shown) [Example 126, 1-[4-(4-{6-Ainino-5-[1-(2,6-dichloro-3-fluoro-phenyl)-ethoxy]-pyridin-3-yl}-pyrazol-1-yl)-piperidin-1-yl]-2-diethylamino-ethanone] | 15 |
| CC(Oc1cc(-c2cnn(C3CCNCC3)c2)cnc1N)c1cc(F)ccc1Br (stereo not shown) [Example 128, 3-[1-(2-Bromo-5-fluoro-phenyl)-ethoxy]-5-(1-piperidin-4-yl-1H-pyrazol-4-yl)-pyridin-2-ylamine] | 349 |
| CC(Oc1cccnc1N)c1cc(F)ccc1C#N (stereo not shown) [Example 129, 2-[1-(2-Amino-pyridin-3-yloxy)-ethyl]-4-fluoro-benzonitrile] | 6460 |
| CC(Oc1cc(-c2cnn(CC(C)(C)O)c2)cnc1N)c1c(Cl)ccc(F)c1Cl (stereo not shown) [Example 130, 1-(4-{6-Amino-5-[1-(2,6-dichloro-3-fluoro-phenyl)-ethoxy]-pyridin-3-yl}-pyrazol-1-yl)-2-methyl-propan-2-ol] | 45 |
| CC(Oc1cc(-c2cnn(CC3(C)COC3)c2)cnc1N)c1c(Cl)ccc(F)c1Cl (stereo not shown) [Example 131, 3-[1-(2,6-Dichloro-3-fluoro-phenyl)-ethoxy]-5-[1-(3-methyl-oxetan-3-ylmethyl)-1H-pyrazol-4-yl]-pyridin-2-ylamine] | 50 |
| CC(Oc1cc(-c2cnn(CC3CCOCC3)c2)cnc1N)c1c(Cl)ccc(F)c1Cl (stereo not shown) [Example 132, 3-[1-(2,6-Dichloro-3-fluoro-phenyl)-ethoxy]-5-[1-(tetraydro-pyran-4-ylmethyl)-1H-pyrazol-4-yl]-pyridin-2-amine] | 42 |
| CC(Oc1cc(-c2cnn(CCN3CCCC3=O)c2)cnc1N)c1c(Cl)ccc(F)c1Cl (stereo not shown) [Example 133, 1-[2-(4-{6-Amino-5-[1-(2,6-dichloro-3-fluoro-phenyl)-ethoxy]-pyridin-3-yl}pyrazol-1-yl)-ethyl]-pyrrolidin-2-one] | 105 |
| CC(Oc1cc(-c2cnn(C[C@H]3CCC(=O)N3)c2)cnc1N)c1c(Cl)ccc(F)c1Cl (stereo partly drawn) [Example 134, 5-(4-{6-Amino-5-[1-(2,6-dichloro-3-fluoro-phenyl)-ethoxy]-pyridin-3-yl}-pyrazol-1-ylmethyl)-pyrrolidin-2R-one] | 24 |
| CC(Oc1cc(-c2cnn(C3CCNCC3)c2)cnc1N)c1cc(F)ccc1C#N (stereo not shown) [Example 135, 2-{1-[2-Amino-5-(1-piperidin-4-yl-1H-pyrazol-4-yl)-pyridin-3-yloxy]ethyl}-4-fluoro-benzonitrile] | 849 |
| CC(Oc1cc(-c2cnn(C3CCNCC3)c2)cnc1N)c1c(Cl)ccc(O)c1Cl (stereo not shown) [Example 136, 3-{1-[2-Amino-5-(1-piperidin-4-yl-1H-pyrazol-4-yl)-pyridin-3-yloxy]-ethyl}-2,4-dichloro-phenol] | 42 |
| COc1ccc(Cl)c(C(C)Oc2cc(-c3cnn(C4CCNCC4)c3)cnc2N)c1Cl (stereo not shown) [Example 138, 3-(1-(2,6-Dichloro-3-methoxy-phenyl)-ethoxy]-5-(1-piperidin-4-yl-1H-pyrazol-4-yl)-pyridin-2-ylamine] | 10 |
| CCOc1ccc(Cl)c(C(C)Oc2cc(-c3cnn(C4CCNCC4)c3)cnc2N)c1Cl (stereo not shown) [Example 139] | 22 |
| CC(C)Oc1ccc(Cl)c(C(C)Oc2cc(-c3cnn(C4CCNCC4)c3)cnc2N)c1Cl (stereo not shown) [Example 140, 3-[1-(2,6-Dichloro-3-isopropoxy-phenyl)-ethoxy]-5-(1-piperidin-4-yl-1H-pyrazol-4-yl)-pyridin-2-ylamine] | 37 |

| SMILES | Ki [nM] |
| --- | --- |
| COCCOc1ccc(Cl)c(C(C)Oc2cc(-c3cnn(C4CCNCC4)c3)cnc2N)c1Cl (stereo not shown) [Example 141, 3-{1-(2,6-Dichloro-3-(2-methoxy-ethoxy)-phenyl]-ethoxy}-5-(1-piperidin-4-yl-1H-pyrazol-4-yl)-pyridin-2-ylamine] | 44 |
| Cc1ccc(Cl)c(C(C)Oc2cc(Br)cnc2N)c1Cl (stereo not shown) [Example 142, 5-Bromo-3-[1-(2,6-dichloro-3-methyl-phenyl)ethoxy]-pyridin-2-ylamine] | 2510 |
| Cc1ccc(Cl)c(C(C)Oc2cc(-c3cnn(C4CCNCC4)c3)cnc2N)c1Cl (stereo not shown) [Example 143, 3-[1-(2,6-Dichloro-3-methyl-phenyl)-ethoxy]-5-(1-piperidin-4-yl-1H-pyrazol-4-yl)-pyridin-2-ylamine] | 22 |
| CC(Oc1cc(-c2cnn(C3CCNCC3)c2)cnc1N)c1cc(F)cc(F)c1Cl (stereo not shown) [Example 144, 3-[1-(2-Chloro-3,5-difluoro-phenyl)-ethoxy]-5-(1-piperidin-4-yl-1H-pyrazol-4-yl)-pyridin-2-ylamine] | 587 |
| CC(Oc1cc(Br)cnc1N)c1c(Cl)c(F)cc(F)c1Cl (stereo not shown) [Example 145, 5-Bromo-3-[1-(2,6-dichloro-3,5-difluoro-phenyl)-ethoxy]-pyridin-2-ylamine] | 30 |
| CC(Oc1cc(-c2cnn(C3CCNCC3)c2)cnc1N)c1c(Cl)c(F)cc(F)c1Cl (stereo not shown) [Example 146, 3-[1-(2,6-Dichloro-3,5-difluoro-phenyl)-ethoxy]-5-(1-piperidin-4-yl-1H-pyrazol-4-yl)-pyridin-2-ylamine] | 30 |
| CC(Oc1cc(-c2cnn(C3CCNCC3)c2)cnc1N)c1c(Cl)c(O)cc(F)c1Cl (stereo not shown) [Example 147, 3-{1-[2-Amino-5-(1-piperidin-4-yl-1H-pyrazol-4-yl)-pyridin-3-yloxy]ethyl}-2,4-dichloro-5-fluoro-phenol] | 30 |
| COc1cc(F)c(Cl)c(C(C)Oc2cc(-c3cnn(C4CCNCC4)c3)cnc2N)c1Cl (stereo not shown) [Example 148, 3-[1-(2,6-Dichloro-3-fluoro-5-methoxy-phenyl)-ethoxy]-5-(1-peridin-4-yl-1H-pyrazol-4-yl)-pyridin-ylamine] | 23 |
| CC(Oc1cc(-c2cnn(C)c2)cnc1N)c1c(Cl)c(F)cc(F)c1Cl (stereo not shown) [Example 149, 3-[1-(2,6-Dichloro-3,5-difluoro-phenyl)-ethoxy]-5-(1-methyl-1H-pyrazol-4-yl)-pyridin-2-ylamine] | 72 |
| CC(Oc1cc(-c2cnn(C3CCNCC3)c2)cnc1N)c1c(Cl)c(F)cc(N(C)C)c1Cl (stereo not shown) [Example 150, 3-[1-(2,6-Dichloro-3-dimethylamino-5-fluoro-phenyl)-ethoxy]-5-(1-piperidin-4-yl-1H-pyrazol-4-yl)-pyridin-2-ylamine] | 163 |
| CC(Oc1cc(-c2cnn(C)c2)cnc1N)c1c(Cl)c(F)cc(OC2CCNCC2)c1Cl (stereo not shown) [Example 151, 3-{1-[2,6-Dichloro-3-fluoro-5-(piperidin-4-yloxy)-phenyl]-ethoxy]-5-(1-methyl-1H-pyrazol-4-yl)-pyridin-2-ylamine] | 25 |
| CC(Oc1cc(-c2cnn(C)c2)cnc1N)c1c(Cl)c(F)cc(O[C@@H]2CCNC2)c1Cl (stereo partly drawn) [Example 152, 3-{1-[2,6-Dichloro-3-fluoro-5-(pyrrolidin-3R-yloxy)-phenyl]-ethoxy}-5-(1-methyl-1H-pyrazol-4-yl)-pyridin-2-ylamine] | 32 |
| CC(Oc1cc(Br)cnc1N)c1c(Cl)c(F)cc(OCCN(C)C)c1Cl (stereo not shown) [Example 153, 5-Bromo-3-{1-[2,6-dichloro-3-(2-dimethylamino-ethoxy)-5-fluoro-phenyl]-ethoxy}-pyridin-2-ylamine] | 805 |
| COc1cc(Cl)c(C(C)Oc2cc(-c3cnn(C4CCNCC4)c3)cnc2N)c(Cl)c1OC (stereo not shown) [Example 154, 3-(1-(2,6-Dichloro-3-dimethoxy-phenyl)-ethoxy]-5-(1-piperidin-4-yl-1H-pyrazol-4-yl)-pyridin-2-ylamine] | 105 |
| CC(Oc1cc(-c2cnn(C)c2)cnc1N)c1c(Cl)c(F)cc(OC2CNC2)c1Cl (stereo not shown) [Example 155, 3-{1-[3-(Azetidin-3-yloxy)-2,6-dichloro-5-fluoro-phenyl]-ethoxy}-5-(1-methyl-1H-pyrazol-4-yl)-pyridin-2-ylamine] | 29 |
| CC(Oc1cc(-c2cnn(C)c2)cnc1N)c1c(Cl)c(F)cc(OC2CCCNC2)c1Cl (stereo not shown) [Example 156, 3-{1-(2,6-Dichloro-3-fluoro-5-(piperidin-3-yloxy)-phenyl]-ethoxy}-5-(1-methyl-1H-pyrazol-4-yl)-pyridin-2-ylamine] | 36 |
| CC(Oc1cc(-c2cnn(C3CCNCC3)c2)cnc1N)c1c(Cl)c(F)cc(N2CCCC2=O)c1Cl (stereo not shown) [Example 157, 1-(3-{1-[2-Amino-5-(1-piperidin-4-yl-1H-pyrazol-4-yl)-pyridin-3-yloxy]-ethyl]-2,4-dichloro-5-fluoro-phenyl)-pyrrolidin-2-one] | 51 |
